One test deals with Cannabinoid receptor 1 (Homo sapiens, UniProt P21554). The format is cell membranes, Chem-1, Membrane. The conditions noted are these: chem-1.
The target of test [1] is T1, Alpha-1A adrenergic receptor (Rattus norvegicus, UniProt P43140).
T1 sequence (P43140 whole entry): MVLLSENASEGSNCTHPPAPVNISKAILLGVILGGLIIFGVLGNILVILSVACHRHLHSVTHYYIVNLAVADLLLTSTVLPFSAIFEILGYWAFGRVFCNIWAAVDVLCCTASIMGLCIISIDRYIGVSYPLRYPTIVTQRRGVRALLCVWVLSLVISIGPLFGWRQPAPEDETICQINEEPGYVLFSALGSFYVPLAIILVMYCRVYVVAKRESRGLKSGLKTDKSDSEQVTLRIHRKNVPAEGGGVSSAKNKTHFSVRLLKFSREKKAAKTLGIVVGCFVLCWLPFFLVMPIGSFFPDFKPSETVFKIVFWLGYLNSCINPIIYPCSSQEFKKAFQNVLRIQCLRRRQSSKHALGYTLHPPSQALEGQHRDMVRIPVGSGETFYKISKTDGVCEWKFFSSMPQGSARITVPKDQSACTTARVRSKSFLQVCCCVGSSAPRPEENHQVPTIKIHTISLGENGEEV
The test is described as follows: DRUGMATRIX: Alpha-1A adrenergic receptor radioligand binding (ligand: prazosin). The format is cell membranes, Wistar, Submaxillary gland, Membrane. The following applies: Not Active = under 50% inhibition at 10 µM.

The nature of test [2]: DRUGMATRIX: GABAA, Muscimol, Central radioligand binding (ligand: [3H] Muscimol). The format is cell membranes, Rattus norvegicus, Wistar, Brain, Membrane. The conditions noted are these: Not Active = under 50% inhibition at 10 µM.
Test [3] deals with Mitogen-activated protein kinase 3 (Homo sapiens, UniProt P27361). The test is described as follows: DRUGMATRIX: Protein Serine/Threonine Kinase, ERK1 enzyme inhibition (substrate: Myelin Basic Protein). Further details: species or system Escherichia coli. The following applies: Not Active = under 50% inhibition at 10 µM.
Test [4] deals with Kappa-type opioid receptor (Homo sapiens, UniProt P41145). The test is described as follows: DRUGMATRIX: Opiate kappa (OP2, KOP) radioligand binding (ligand: [3H] Diprenorphine). The conditions noted are these: hek293; Not Active = under 50% inhibition at 10 µM. It counts as cell membranes, HEK293, Membrane.
The target in test [5] is T2, Receptor-type tyrosine-protein phosphatase C (Homo sapiens, UniProt P08575).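 Further: inhibition of CD45 enzyme activity measured using DiFMUP as substrate; in other assays of this panel Not Active means under 50% inhibition at 10 µM.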
T2 sequence (P08575 whole entry): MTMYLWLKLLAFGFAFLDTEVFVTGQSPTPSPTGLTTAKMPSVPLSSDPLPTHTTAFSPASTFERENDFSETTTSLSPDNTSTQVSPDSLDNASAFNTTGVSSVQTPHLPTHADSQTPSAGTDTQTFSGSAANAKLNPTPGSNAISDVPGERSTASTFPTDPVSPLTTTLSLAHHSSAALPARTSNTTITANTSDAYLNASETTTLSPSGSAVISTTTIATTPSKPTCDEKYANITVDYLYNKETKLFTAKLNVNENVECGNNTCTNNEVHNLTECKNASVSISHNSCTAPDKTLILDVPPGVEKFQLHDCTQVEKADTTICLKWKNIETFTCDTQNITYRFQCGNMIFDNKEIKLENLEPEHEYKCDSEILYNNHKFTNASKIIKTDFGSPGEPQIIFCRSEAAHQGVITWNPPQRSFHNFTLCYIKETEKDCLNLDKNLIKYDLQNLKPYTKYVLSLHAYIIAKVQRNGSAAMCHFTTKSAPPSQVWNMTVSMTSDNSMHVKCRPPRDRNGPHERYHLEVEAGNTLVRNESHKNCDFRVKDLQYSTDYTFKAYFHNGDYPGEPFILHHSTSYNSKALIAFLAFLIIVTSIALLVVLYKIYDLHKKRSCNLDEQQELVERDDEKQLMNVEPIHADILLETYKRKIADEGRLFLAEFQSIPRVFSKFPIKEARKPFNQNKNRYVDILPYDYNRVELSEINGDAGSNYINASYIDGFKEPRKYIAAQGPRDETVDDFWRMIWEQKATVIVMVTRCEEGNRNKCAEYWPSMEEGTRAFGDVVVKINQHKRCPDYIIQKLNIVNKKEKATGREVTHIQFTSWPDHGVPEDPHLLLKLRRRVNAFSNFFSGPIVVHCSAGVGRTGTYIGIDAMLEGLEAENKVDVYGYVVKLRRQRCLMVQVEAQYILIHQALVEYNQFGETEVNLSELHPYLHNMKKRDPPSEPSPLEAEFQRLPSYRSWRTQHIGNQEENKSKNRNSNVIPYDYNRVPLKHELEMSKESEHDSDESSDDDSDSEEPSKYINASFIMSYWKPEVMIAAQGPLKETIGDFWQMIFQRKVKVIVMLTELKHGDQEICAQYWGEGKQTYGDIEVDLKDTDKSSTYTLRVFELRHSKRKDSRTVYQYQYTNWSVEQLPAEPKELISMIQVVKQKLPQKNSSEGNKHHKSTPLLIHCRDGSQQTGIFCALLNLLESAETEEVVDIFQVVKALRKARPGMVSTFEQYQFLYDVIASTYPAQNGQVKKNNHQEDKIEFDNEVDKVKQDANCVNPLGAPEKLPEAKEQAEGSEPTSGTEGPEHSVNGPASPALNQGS
Further details: species or system Escherichia coli.

The values below come from ChEMBL document CHEMBL1909046, “DrugMatrix in vitro pharmacology data”.

Chain of Mitogen-activated protein kinase 3 (P27361 whole entry): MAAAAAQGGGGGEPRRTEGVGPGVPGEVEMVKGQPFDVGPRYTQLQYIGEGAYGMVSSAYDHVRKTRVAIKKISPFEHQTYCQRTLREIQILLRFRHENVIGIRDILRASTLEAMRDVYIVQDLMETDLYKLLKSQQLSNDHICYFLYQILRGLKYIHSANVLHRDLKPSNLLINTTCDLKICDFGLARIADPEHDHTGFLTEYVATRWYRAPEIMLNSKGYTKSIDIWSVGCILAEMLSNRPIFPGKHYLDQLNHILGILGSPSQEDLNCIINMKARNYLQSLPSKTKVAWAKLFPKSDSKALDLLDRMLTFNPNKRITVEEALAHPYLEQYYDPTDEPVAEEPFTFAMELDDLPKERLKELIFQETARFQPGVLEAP
Chain of Cannabinoid receptor 1 (P21554 whole entry): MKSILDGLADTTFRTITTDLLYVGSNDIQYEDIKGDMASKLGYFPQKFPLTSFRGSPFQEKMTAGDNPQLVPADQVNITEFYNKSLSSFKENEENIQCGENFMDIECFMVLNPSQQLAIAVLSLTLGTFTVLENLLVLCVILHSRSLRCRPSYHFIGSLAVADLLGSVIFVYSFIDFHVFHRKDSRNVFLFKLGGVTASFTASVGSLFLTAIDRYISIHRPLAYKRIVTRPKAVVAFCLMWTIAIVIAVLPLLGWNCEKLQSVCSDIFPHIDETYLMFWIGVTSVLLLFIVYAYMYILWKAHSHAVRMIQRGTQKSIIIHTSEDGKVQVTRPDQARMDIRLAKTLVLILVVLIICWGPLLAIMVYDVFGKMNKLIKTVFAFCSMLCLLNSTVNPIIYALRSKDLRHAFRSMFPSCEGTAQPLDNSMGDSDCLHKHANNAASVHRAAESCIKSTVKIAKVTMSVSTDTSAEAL
Chain of Kappa-type opioid receptor (P41145 whole entry): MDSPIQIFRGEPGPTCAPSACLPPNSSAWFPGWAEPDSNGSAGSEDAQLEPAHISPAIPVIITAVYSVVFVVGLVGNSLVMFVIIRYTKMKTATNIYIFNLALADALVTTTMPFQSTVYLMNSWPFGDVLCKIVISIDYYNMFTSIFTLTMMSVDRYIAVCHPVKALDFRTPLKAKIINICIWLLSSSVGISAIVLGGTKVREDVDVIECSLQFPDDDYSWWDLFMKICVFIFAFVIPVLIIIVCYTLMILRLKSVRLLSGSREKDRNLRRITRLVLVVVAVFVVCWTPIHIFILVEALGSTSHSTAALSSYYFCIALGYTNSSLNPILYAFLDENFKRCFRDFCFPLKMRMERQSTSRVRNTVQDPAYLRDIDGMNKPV

Take `NCCCNCCSP(=O)(O)O` [AMIFOSTINE]: the concentration for half-maximal inhibition (IC50) entry (at Cannabinoid receptor 1; in test [1]; in test [2]; in test [3]; in test [4]; in test [5]) was “Not Active” in each case. Moreover, the Ki entry in test [2] is “Not Active”.
For the molecule `CN(C)CCC=C1c2ccccc2CCc2ccccc21` [AMITRIPTYLINE], the IC50 result against Cannabinoid receptor 1 is “Not Active”; in test [1] (read-out: IC50), 14 nM; in test [2] it was “Not Active”; in test [3], “Not Active”; in test [4] it was “Not Active”; in test [5], “Not Active”. Moreover, the Ki in test [1] (read-out: Ki) is 5.6 nM; in test [2], “Not Active”.
Regarding `CC(=O)Oc1ccccc1C(=O)O` [ASPIRIN], the concentration for half-maximal inhibition (IC50) result (against Cannabinoid receptor 1; in test [1]; in test [2]; in test [3]; in test [4]; in test [5]) was “Not Active” throughout. For the same molecule, the Ki entry in test [2] was “Not Active”.
Turning to `CC(C)c1c(C(=O)Nc2ccccc2)c(-c2ccccc2)c(-c2ccc(F)cc2)n1CC[C@@H](O)C[C@@H](O)CC(=O)O` [ATORVASTATIN], the IC50 entry (against Cannabinoid receptor 1; in test [1]; in test [2]; in test [3]; in test [4]; in test [5]) was “Not Active” throughout. For the same molecule, the Ki result in test [2] is reported as “Not Active”.
For `CC(=O)OC[C@H]1O[C@@H](n2ncc(=O)[nH]c2=O)[C@H](OC(C)=O)[C@@H]1OC(C)=O` [AZARIBINE], the IC50 result (against Cannabinoid receptor 1; in test [1]; in test [2]; in test [3]; in test [4]; in test [5]) was “Not Active” throughout. In addition, the Ki entry in test [2] is “Not Active”.
Consider `C[C@H]1[C@H](NC(=O)/C(=N\OC(C)(C)C(=O)O)c2csc(N)n2)C(=O)N1S(=O)(=O)O` [AZTREONAM], for which the IC50 result (against Cannabinoid receptor 1; in test [1]; in test [2]; in test [3]; in test [4]; in test [5]) was “Not Active” in each case. Moreover, the inhibition constant Ki result in test [2] is “Not Active”.
Take `O=C(O)CCNC(=O)c1ccc(/N=N/c2ccc(O)c(C(=O)O)c2)cc1` [BALSALAZIDE]: the IC50 result (against Cannabinoid receptor 1; in test [1]; in test [2]; in test [3]; in test [4]; in test [5]) was “Not Active” in each case. In test [2], the Ki entry was “Not Active”.
As for `COc1cc(OC)c(C(=O)CCCN2CCCC2)c(OC)c1` [BUFLOMEDIL], the IC50 result (against Cannabinoid receptor 1; in test [1]; in test [2]; in test [3]; in test [4]; in test [5]) was “Not Active” each time. For the same molecule, the Ki entry in test [2] is reported as “Not Active”.
`Cn1c(=O)c2c(ncn2C)n(C)c1=O` [CAFFEINE]: the IC50 entry (against Cannabinoid receptor 1; in test [1]; in test [2]; in test [3]; in test [4]; in test [5]) was “Not Active” each time. In test [2], the Ki result is “Not Active”.
For `ClC(Cl)(Cl)Cl` [CARBON TETRACHLORIDE], the IC50 entry (against Cannabinoid receptor 1; in test [1]; in test [2]; in test [3]; in test [4]; in test [5]) was “Not Active” in each case. In test [2], the Ki entry is “Not Active”.
Consider `CNC1=Nc2ccc(Cl)cc2C(c2ccccc2)=[N+]([O-])C1` [CHLORDIAZEPOXIDE], for which the IC50 result (against Cannabinoid receptor 1; in test [1]; in test [2]; in test [3]; in test [4]; in test [5]) was “Not Active” in each case. Further, the Ki result in test [2] is “Not Active”.

The term IC50 denotes the concentration needed to halve the response being measured. Usually Ki stands for a measure of affinity in units of concentration, obtained from inhibition or displacement.
